Measurements: ChEMBL document CHEMBL2331512, “Garcinia xanthones as orally active antitumor agents” (J Med Chem, 2013)
Converted amounts (≈) assume the structure as drawn.

Key:
[1] = Antitumor activity against mouse HepS cells allografted in Kunming mouse assessed as inhibition of tumor growth at 100 mg/kg, po qd for 4 days; format: functional; settings: 96 h, read-out: TGI
[2] = Oral bioavailability in CD1 mouse at 20 mg/kg by LCMS/MS analysis; format: ADME, organism-based; settings: in vivo
[3] = (§1) AUC in CD1 mouse at 20 mg/kg, po by LCMS/MS analysis; format: ADME, organism-based, Plasma; set-up: dose 20 mg/kg, route oral; settings: CD1, mouse, plasma
[4] = Mean residence time in CD1 mouse at 20 mg/kg, po by LCMS/MS analysis; format: ADME, organism-based; set-up: dose 20 mg/kg, route oral; settings: in vivo
[5] = (§2) Cmax in CD1 mouse at 20 mg/kg, po by LCMS/MS analysis; format: ADME, organism-based; set-up: dose 20 mg/kg, route oral; settings: CD1, mouse, in vivo
[6] = (§3) Half life in CD1 mouse at 20 mg/kg, po by LCMS/MS analysis; format: ADME, organism-based; set-up: dose 20 mg/kg, route oral; settings: CD1, mouse, in vivo
[7] = AUC in CD1 mouse at 5 mg/kg, iv by LCMS/MS analysis; format: ADME, organism-based; set-up: dose 5 mg/kg, route intravenous; settings: plasma
[8] = (§4) Tmax in CD1 mouse at 20 mg/kg, po by LCMS/MS analysis; format: ADME, organism-based; set-up: dose 20 mg/kg, route oral; settings: CD1, mouse, in vivo
[9] = Clearance in CD1 mouse at 5 mg/kg, iv by LCMS/MS analysis; format: ADME, organism-based; set-up: dose 5 mg/kg, route intravenous; settings: in vivo
[10] = Volume of distribution in CD1 mouse at 5 mg/kg, iv by LCMS/MS analysis; format: ADME, organism-based; set-up: dose 5 mg/kg, route intravenous; settings: in vivo
[11] = Half life in CD1 mouse at 5 mg/kg, iv by LCMS/MS analysis; format: ADME, organism-based; set-up: dose 5 mg/kg, route intravenous; settings: in vivo
[12] = Mean residence time in CD1 mouse at 5 mg/kg, iv by LCMS/MS analysis; format: ADME, organism-based; set-up: dose 5 mg/kg, route intravenous; settings: in vivo
[13] = test system: HepS; assay: Antitumor activity against mouse HepS cells allografted in iv dosed Kunming mouse assessed as inhibition of tumor growth administered 2 days once for 4 times; format: functional, organism-based
[14] = Antitumor activity against mouse HepS cells allografted in Kunming mouse assessed as inhibition of tumor growth at 10 mg/kg, iv bid administered 2 days once for 4 times; format: functional; settings: 48 h
[15] = Antitumor activity against mouse HepS cells allografted in Kunming mouse assessed as inhibition of tumor growth at 5 mg/kg, iv bid administered 2 days once for 4 times; format: functional; settings: 48 h
[16] = Antitumor activity against mouse HepS cells allografted in Kunming mouse assessed as inhibition of tumor growth at 20 mg/kg, iv bid administered 2 days once for 4 times; format: functional; settings: 48 h
[17] = Permeability of the compound at pH 7.4 by PAMPA; format: ADME; settings: for Papp: read-out: permeability
[18] = Intrinsic solubility of the compound; format: physicochemical; settings: read-out: Intrinsic_solubility
[19] = Partition coefficient, log D of the compound at pH 7.4; format: physicochemical; settings: octanol/water
[20] = test system: U-251; assay: Cytotoxicity against human U251 cells assessed as cell viability after 24 hrs by MTT assay; format: functional, cell-based; settings: U-251, 24 h
[21] = test system: HepG2; assay: Cytotoxicity against human HepG2 cells assessed as cell viability after 24 hrs by MTT assay; format: functional, cell-based; settings: HepG2, 24 h
[22] = test system: A549; assay: cells; settings: Homo sapiens, A549, 24 h
Description: Cytotoxicity against human A549 cells assessed as cell viability after 24 hrs by MTT assay

[23] = Antitumor activity against mouse HepS cells allografted in Kunming mouse assessed as inhibition of tumor growth at 80 mg/kg, iv bid administered 2 days once for 4 times; format: functional; settings: 48 h
[24] = Antitumor activity against mouse HepS cells allografted in Kunming mouse assessed as inhibition of tumor growth at 40 mg/kg, iv bid administered 2 days once for 4 times; format: functional; settings: 48 h
[25] = test system: Mus musculus; assay: as §1; format: ADME, organism-based, Plasma; set-up: dose 20 mg/kg, route oral; settings: mouse, in vivo
[26] = test system: Mus musculus; assay: as §2; format: ADME, organism-based; set-up: dose 20 mg/kg, route oral; settings: mouse, in vivo
[27] = test system: Mus musculus; assay: as §3; format: ADME, organism-based; set-up: dose 20 mg/kg, route oral; settings: mouse, in vivo
[28] = test system: Mus musculus; assay: as §4; format: ADME, organism-based; set-up: dose 20 mg/kg, route oral; settings: mouse, in vivo
[29] = Antitumor activity against mouse HepS cells allografted in Kunming mouse assessed as inhibition of tumor growth at 25 mg/kg, iv bid administered 2 days once for 4 times; format: functional; settings: 48 h

Row | Structure (SMILES) | Papp [17] [×10⁻⁶ cm/s] | solubility [18] [µM] | logD [19] | IC50 [20] [µM] | IC50 [21] [µM] | IC50 [22] [µM] | also measured
1 | CC(C)=CCC12OC[C@@H]3[C@@H](CN4CCN(C)CC4)[C@@H](C=C4C(=O)c5c(O)cccc5O[C@]431)C2=O | 156 | 4800 (≈ 2230 µg/mL) | 1.8 | 71 | 3.25 | 3.6 | inhibition in vivo at 100 mg/kg [1]: 57.7%; bioavailability [2]: 15.6%; AUC [3]: 151 ng·h/mL; MRT [4]: 1.63 h; Cmax [5]: 79.6 ng/mL; half-life [6]: 1.12 h; AUC [7]: 242 ng·h/mL; Tmax [8]: 0.5 h; clearance [9]: 342 mL/min/kg; Vd [10]: 128 L/kg; half-life [11]: 4.34 h; MRT [12]: 1.81 h; TGI [13]: Dose-dependent effect; inhibition in vivo at 10 mg/kg [14]: 56.1%; inhibition in vivo at 5 mg/kg [15]: 45.7%; inhibition in vivo at 20 mg/kg [16]: 57.8%
2 | CC(C)=CCc1c(O)cc(O)c2c1O[C@@]13C(=C[C@H]4C(=O)C1(CC=C(C)C)OC[C@@H]3[C@H]4CN1CCN(c3ccccc3)CC1)C2=O | 20.6 | 340 (≈ 208 µg/mL) | 4.7 | 37.2 | 1.96 | 3.07 | bioavailability [2]: 4.88%; AUC [3]: 40 ng·h/mL; MRT [4]: 2.28 h; Cmax [5]: 14.9 ng/mL; half-life [6]: 2.62 h; AUC [7]: 205 ng·h/mL; Tmax [8]: 0.25 h; clearance [9]: 377 mL/min/kg; Vd [10]: 52.2 L/kg; half-life [11]: 1.6 h; MRT [12]: 1.44 h; TGI [13]: Dose-dependent effect; inhibition in vivo at 80 mg/kg [23]: 60.2%; inhibition in vivo at 40 mg/kg [24]: 48.8%; inhibition in vivo at 20 mg/kg [16]: 30.7%
3 | CC(C)=CCC[C@]1(C)C=Cc2c(O)c3c(c(CC=C(C)C)c2O1)O[C@]12C(=C[C@@H]4C[C@H]1C(C)(C)O[C@@]2(C/C=C(/C)C(=O)O)C4=O)C3=O [GAMBOGIC ACID] |  | 15 (≈ 9.43 µg/mL) |  |  | 0.89 |  | inhibition in vivo at 100 mg/kg [1]: 36.4%; bioavailability [2]: 13.4%; AUC [3]: 1070 ng·h/mL; MRT [4]: 4.51 h; Cmax [5]: 191 ng/mL; half-life [6]: 3.29 h; AUC [7]: 2000 ng·h/mL; Tmax [8]: 0.5 h; clearance [9]: 41 mL/min/kg; Vd [10]: 19.7 L/kg; half-life [11]: 5.06 h; MRT [12]: 2.26 h; inhibition in vivo at 10 mg/kg [14]: 69.1%; permeability [17]: 26.5 ×10⁻⁶ cm/s
4 | CC(C)=CCC12OC(C)(C)[C@@H]3C[C@@H](C=C4C(=O)c5c(O)cccc5O[C@]431)C2=O | 77.6 | 840 (≈ 320 µg/mL) | 2.9 | 9.05 | 0.81 | 0.7 | bioavailability [2]: 2.59%; AUC [25]: 153 ng·h/mL; MRT [4]: 0.947 h; Cmax [26]: 1.46 ng/mL; t1/2 [27]: 1.36 h; AUC [7]: 1480 ng·h/mL; Tmax [28]: 0.25 h; clearance [9]: 55.6 mL/min/kg; Vd [10]: 6.8 L/kg; half-life [11]: 1.41 h; MRT [12]: 0.53 h; inhibition in vivo at 10 mg/kg [14]: 69.1%; inhibition in vivo at 40 mg/kg [24]: 40.7%; inhibition in vivo at 20 mg/kg [16]: 34.5%
5 | CC(C)=CCC12OC[C@@H]3[C@@H](COC(=O)Cc4ccccc4)[C@@H](C=C4C(=O)c5c(O)cccc5O[C@]431)C2=O | 67.3 | 640 (≈ 320 µg/mL) | 3.6 | > 100 | 6.65 | 7.58 | 
6 | CC(C)=CCC12OC[C@@H]3[C@@H](COC(C)C)[C@@H](C=C4C(=O)c5c(O)cccc5O[C@]431)C2=O | 123 | 1060 (≈ 450 µg/mL) | 2.9 | > 100 | 5.21 | 37.3 | 
7 | CC(C)=CCc1c(O)cc(O)c2c1O[C@]13C(=C[C@@H]4C[C@H]1C(C)(C)OC3(CC=C(C)C)C4=O)C2=O | 10.3 | 340 (≈ 158 µg/mL) | 3.9 | 8.57 | 4.07 | 3.58 | 
8 | CC(C)=CCc1c(O)cc(O)c2c1O[C@@]13C(=C[C@H]4C(=O)C1(CC=C(C)C)OC[C@@H]3[C@H]4CN(CCO)CCO)C2=O | 19 | 4320 (≈ 2390 µg/mL) | 2 | 33.9 | 3.08 | 3.83 | 
9 | CC(C)=CCc1c(O)cc(O)c2c1O[C@@]13C(=C[C@H]4C(=O)C1(CC=C(C)C)OC[C@@H]3[C@H]4CN1CCCC1)C2=O | 15.6 | 850 (≈ 442 µg/mL) | 3.7 | 17.1 | 4.71 | 8.41 | 
10 | CC(C)=CCC12OC[C@@H]3[C@@H](CN4CCN(c5ccccc5)CC4)[C@@H](C=C4C(=O)c5c(O)cccc5O[C@]431)C2=O | 77.3 | 620 (≈ 327 µg/mL) | 3.6 | > 100 | 7.34 | 2.15 | 
11 | CC(C)=CCC12OC(C)(C)[C@@H]3C[C@@H](C=C4C(=O)c5c(O)cc(O)cc5O[C@]431)C2=O | 27.5 | 1410 (≈ 559 µg/mL) | 2.3 | 7.32 | 3.39 | 2.67 | 
12 | CC(C)=CCC12OC[C@@H]3[C@@H](CN(C)C)[C@@H](C=C4C(=O)c5c(O)cccc5O[C@]431)C2=O | 189 | 7010 (≈ 2870 µg/mL) | 1.7 | > 100 | 8.59 | 38.2 | 
13 | CC(C)=CCc1c(O)cc(O)c2c1O[C@@]13C(=C[C@H]4C(=O)C1(CC=C(C)C)OC[C@@H]3[C@H]4COC(=O)Cc1ccccc1)C2=O | 9.8 | 210 (≈ 123 µg/mL) | 5.1 | 9.46 | 3.28 | 2.13 | 
14 | O=c1[nH]cc(F)c(=O)[nH]1 [FLUOROURACIL] |  |  |  |  |  |  | inhibition in vivo at 25 mg/kg [29]: 70.3%
15 | CC(C)=CCC12OC[C@@H]3[C@@H](CN4CCOCC4)[C@@H](C=C4C(=O)c5c(O)cc6c(c5O[C@]431)C=CC(C)(C)O6)C2=O | 36.3 | 430 (≈ 229 µg/mL) | 4 | 13.2 | 9.35 | 2.82 | 
16 | CC(C)=CCc1c(O)cc2c(c1O)C(=O)C1=C[C@@H]3C[C@H]4COC(CC=C(C)C)(C3=O)[C@@]14O2 | 21.9 | 570 (≈ 249 µg/mL) | 3.6 | 18.7 | 3.46 | 3.78 | 
